The record followed here is ChEMBL document CHEMBL3414572, “Identification of fused 16β,17β-oxazinone-estradiol derivatives as a new family of non-estrogenic 17β-hydroxysteroid dehydrogenase type 1 inhibitors” (Eur J Med Chem, 2015).

Broadly, the inhibition is the drop in the measured response relative to a control, in per cent. For orientation: IC50 means the point on the concentration scale where inhibition reaches its midpoint.

For assay [1], the target named is T1, 17-beta-hydroxysteroid dehydrogenase type 1 (Homo sapiens) (UniProt P14061).
T1 sequence (whole entry): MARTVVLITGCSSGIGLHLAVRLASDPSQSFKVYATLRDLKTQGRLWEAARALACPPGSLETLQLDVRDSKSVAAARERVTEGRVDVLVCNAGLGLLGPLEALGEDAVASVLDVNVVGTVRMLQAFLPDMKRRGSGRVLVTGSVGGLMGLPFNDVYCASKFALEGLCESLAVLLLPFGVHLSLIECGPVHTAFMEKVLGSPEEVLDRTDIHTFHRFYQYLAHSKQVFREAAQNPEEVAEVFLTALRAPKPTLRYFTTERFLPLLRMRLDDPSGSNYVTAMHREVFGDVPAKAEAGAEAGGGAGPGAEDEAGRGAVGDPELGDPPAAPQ
The assay can be described thus: Inhibition of 17 beta-HSD1 in human T47D cells assessed as inhibition of transformation of [14C]E1 to [14C]E2 at 10 uM after overnight incubation. It is filed as cell-based.

The subject of assay [2] is T47D. The assay can be described thus: Estrogenic activity in human T47D cells assessed as cell proliferation at 0.1 uM incubated for 7 days with replacement of media in every 2 days by CellTitre-Glo assay. Format: functional.
The test system of assay [3] is T47D. Put plainly: Estrogenic activity in human T47D cells assessed as cell proliferation at 0.5 uM incubated for 7 days with replacement of media in every 2 days by CellTitre-Glo assay. Format: functional.
Assay [4] addresses T2, 17-beta-hydroxysteroid dehydrogenase type 1 (Homo sapiens, UniProt P14061).
T2 sequence (P14061 whole entry): T1 sequence (whole entry)
The assay can be described thus: Inhibition of 17 beta-HSD1 in human T47D cells assessed as inhibition of transformation of [14C]E1 to [14C]E2 after overnight incubation. It is filed as cell-based.

Assay [5] concerns the target T3, 17-beta-hydroxysteroid dehydrogenase type 2 (Homo sapiens) (UniProt P37059).
T3 sequence (whole entry): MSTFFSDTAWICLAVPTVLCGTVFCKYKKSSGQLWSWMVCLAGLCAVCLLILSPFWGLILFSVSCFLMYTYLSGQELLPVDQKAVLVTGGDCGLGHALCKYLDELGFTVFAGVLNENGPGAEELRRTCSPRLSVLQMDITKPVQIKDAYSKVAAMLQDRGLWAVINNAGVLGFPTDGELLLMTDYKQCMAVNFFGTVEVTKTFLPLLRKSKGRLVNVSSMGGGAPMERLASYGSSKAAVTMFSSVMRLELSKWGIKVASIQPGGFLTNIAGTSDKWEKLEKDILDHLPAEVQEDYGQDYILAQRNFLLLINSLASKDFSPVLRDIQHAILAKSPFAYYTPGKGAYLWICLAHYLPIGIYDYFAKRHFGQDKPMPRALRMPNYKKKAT
The assay can be described thus: Inhibition of 17 beta-HSD2 (unknown origin) transfected in HEK293 cells using [14C]E2 as substrate at 1 uM. Format: cell-based.

The target of assay [6] is T3, 17-beta-hydroxysteroid dehydrogenase type 2 (Homo sapiens). The assay can be described thus: Inhibition of 17 beta-HSD2 (unknown origin) transfected in HEK293 cells using [14C]E2 as substrate at 10 uM. It is filed as cell-based.
Assay [7] addresses T4, Very-long-chain 3-oxoacyl-CoA reductase (Homo sapiens) (UniProt Q53GQ0).
T4 sequence (whole entry): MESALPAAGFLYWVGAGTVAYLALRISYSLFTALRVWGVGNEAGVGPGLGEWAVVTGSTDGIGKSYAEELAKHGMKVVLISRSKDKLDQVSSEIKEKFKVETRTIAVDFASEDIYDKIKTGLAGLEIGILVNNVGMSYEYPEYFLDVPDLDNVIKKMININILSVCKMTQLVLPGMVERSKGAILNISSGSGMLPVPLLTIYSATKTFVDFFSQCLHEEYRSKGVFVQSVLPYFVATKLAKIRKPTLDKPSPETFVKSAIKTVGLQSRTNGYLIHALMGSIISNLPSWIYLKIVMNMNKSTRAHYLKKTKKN
The assay can be described thus: Inhibition of 17 beta-HSD12 (unknown origin) at 10 uM.

Activity calls are given as the source filed them. No cut-off for these calls is given here.

For the molecule `CCCCCCCCN1C(=O)O[C@@H]2[C@@]3(C)CC[C@@H]4c5ccc(O)cc5CC[C@H]4[C@@H]3C[C@]2(O)[C@@H]1c1cccc(C(N)=O)c1`, the inhibition result in assay [1] was “Active”.

Consider `C[C@]12CC[C@@H]3c4ccc(O)cc4CC[C@H]3[C@@H]1CC[C@@H]2O` [ESTRADIOL], for which the growth at 0.1 µM with T47D [2] (read-out: Activity) turned out to be 320%. Moreover, the growth at 0.5 µM in the assay with T47D [3] (read-out: Activity) was 380%.

For `CCCCN1C(=O)O[C@H]2C(=C[C@H]3[C@@H]4CCc5cc(O)ccc5[C@H]4CC[C@]23C)[C@@H]1c1cccc(C(N)=O)c1`, in assay [1], the inhibition entry was “Active”. The IC50 in assay [4] was 1.4 µM. Also, the outcome in the assay on T47D [2] and in the assay on T47D [3] was inactive. Moreover, the inhibition in assay [5] was determined as 10%; in assay [6], 15%. Further, in assay [7], the inhibition entry was “inactive”.

As for `CCCCN1C(=O)O[C@@H]2[C@@]3(C)CC[C@@H]4c5ccc(O)cc5CC[C@H]4[C@@H]3C[C@]2(O)[C@@H]1c1cccc(C(N)=O)c1`, in assay [1], the inhibition result was “Active”.

With `CCCCCCN1C(=O)O[C@H]2C(=C[C@H]3[C@@H]4CCc5cc(O)ccc5[C@H]4CC[C@]23C)[C@@H]1c1cccc(C(N)=O)c1`, in assay [1], the inhibition result is “Active”.

With `CCCCCCN1C(=O)O[C@@H]2[C@@]3(C)CC[C@@H]4c5ccc(O)cc5CC[C@H]4[C@@H]3C[C@]2(O)[C@@H]1c1cccc(C(N)=O)c1`, the inhibition result in assay [1] was “Active”. In assay [4], the IC50 amounted to 6.6 µM. For the same molecule, in the assay on T47D [3], the outcome was Active.

In the case of `CCN1C(=O)O[C@@H]2[C@@]3(C)CC[C@@H]4c5ccc(O)cc5CC[C@H]4[C@@H]3C[C@]2(O)[C@@H]1c1cccc(C(N)=O)c1`, the inhibition entry in assay [1] is “Active”.

On to `CCCCCCCCN1C(=O)O[C@H]2C(=C[C@H]3[C@@H]4CCc5cc(O)ccc5[C@H]4CC[C@]23C)[C@@H]1c1cccc(C(N)=O)c1`, for which, in assay [1], the inhibition entry is “Active”.

`CCN1C(=O)O[C@H]2C(=C[C@H]3[C@@H]4CCc5cc(O)ccc5[C@H]4CC[C@]23C)[C@@H]1c1cccc(C(N)=O)c1`: the inhibition result in assay [1] was “Active”.
